Experimental data reported in the Kinase Knowledgebase extract (Sharma et al. 2016).
pIC50: −log10 of the molar value.

Columns and labels:
[1] = molecular target: PIK3CA (human) (UniProt P42336); assay: Assessment of PIK3CA Kinase Activity
[2] = molecular target: PIK3CD (Human) (UniProt O00329); assay: Assessment of PIK3CD Kinase Activity
Chain of PIK3CD (Human) (O00329 whole entry, looked up): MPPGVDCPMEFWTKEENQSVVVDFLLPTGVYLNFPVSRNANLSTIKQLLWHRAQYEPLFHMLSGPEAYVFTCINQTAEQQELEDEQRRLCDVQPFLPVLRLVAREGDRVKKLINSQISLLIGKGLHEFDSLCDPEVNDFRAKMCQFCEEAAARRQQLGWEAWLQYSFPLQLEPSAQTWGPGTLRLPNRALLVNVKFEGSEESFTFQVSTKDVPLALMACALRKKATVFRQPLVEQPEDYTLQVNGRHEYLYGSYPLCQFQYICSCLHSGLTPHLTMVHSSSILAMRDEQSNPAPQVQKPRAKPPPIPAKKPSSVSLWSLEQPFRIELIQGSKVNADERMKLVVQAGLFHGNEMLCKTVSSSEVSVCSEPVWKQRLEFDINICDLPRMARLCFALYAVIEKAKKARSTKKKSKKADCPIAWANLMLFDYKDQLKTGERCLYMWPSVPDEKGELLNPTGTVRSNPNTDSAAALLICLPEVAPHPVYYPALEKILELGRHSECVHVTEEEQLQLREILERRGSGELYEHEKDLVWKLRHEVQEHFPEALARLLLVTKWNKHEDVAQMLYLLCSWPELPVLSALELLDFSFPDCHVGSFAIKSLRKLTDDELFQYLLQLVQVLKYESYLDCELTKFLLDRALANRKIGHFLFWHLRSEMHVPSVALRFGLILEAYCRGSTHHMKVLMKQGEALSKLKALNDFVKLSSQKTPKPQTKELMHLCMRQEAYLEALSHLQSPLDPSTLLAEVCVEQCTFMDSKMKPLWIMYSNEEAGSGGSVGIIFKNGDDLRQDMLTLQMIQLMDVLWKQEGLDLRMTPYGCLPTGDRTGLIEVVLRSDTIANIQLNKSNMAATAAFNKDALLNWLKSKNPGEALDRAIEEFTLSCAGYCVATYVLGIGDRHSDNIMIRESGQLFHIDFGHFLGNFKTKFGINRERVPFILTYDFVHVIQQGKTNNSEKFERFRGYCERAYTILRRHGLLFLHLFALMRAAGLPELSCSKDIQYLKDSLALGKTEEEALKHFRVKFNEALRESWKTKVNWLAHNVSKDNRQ

Chain of PIK3CA (human) (P42336 whole entry, looked up): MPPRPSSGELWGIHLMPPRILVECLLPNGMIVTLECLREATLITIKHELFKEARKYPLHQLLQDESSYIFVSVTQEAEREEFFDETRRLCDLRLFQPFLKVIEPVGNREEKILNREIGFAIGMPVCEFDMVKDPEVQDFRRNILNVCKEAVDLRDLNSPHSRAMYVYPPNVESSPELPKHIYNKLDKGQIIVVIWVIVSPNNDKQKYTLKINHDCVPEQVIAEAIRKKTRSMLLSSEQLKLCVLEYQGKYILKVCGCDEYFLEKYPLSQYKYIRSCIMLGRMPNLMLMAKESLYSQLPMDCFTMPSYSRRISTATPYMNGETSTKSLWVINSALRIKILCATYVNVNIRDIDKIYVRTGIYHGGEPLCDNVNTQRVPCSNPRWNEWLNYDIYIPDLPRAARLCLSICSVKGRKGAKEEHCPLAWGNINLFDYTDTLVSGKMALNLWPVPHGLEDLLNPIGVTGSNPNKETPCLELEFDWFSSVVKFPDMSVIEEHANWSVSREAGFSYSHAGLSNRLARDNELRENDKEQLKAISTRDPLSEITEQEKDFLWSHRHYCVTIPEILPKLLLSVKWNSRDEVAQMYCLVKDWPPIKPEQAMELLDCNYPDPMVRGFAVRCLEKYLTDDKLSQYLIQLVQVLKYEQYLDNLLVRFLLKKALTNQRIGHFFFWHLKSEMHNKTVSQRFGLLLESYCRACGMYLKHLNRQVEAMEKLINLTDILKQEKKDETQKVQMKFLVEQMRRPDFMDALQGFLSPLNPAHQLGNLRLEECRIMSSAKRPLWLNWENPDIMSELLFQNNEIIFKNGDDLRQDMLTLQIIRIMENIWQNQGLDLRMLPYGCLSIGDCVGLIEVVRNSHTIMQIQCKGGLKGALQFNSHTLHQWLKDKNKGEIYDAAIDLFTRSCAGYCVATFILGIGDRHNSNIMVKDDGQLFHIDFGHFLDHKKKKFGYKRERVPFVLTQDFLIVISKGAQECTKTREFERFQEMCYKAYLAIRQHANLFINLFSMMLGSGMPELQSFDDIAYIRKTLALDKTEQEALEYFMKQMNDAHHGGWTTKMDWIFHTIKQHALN

| Structure (SMILES) | pIC50 [1] | pIC50 [2] |
| --- | --- | --- |
| Cn1c(CN2CCC(C(C)(C)O)CC2)nc2c(N3CCOCC3)nc(-c3cnc(N)c4ccccc34)nc21 | 6.61 | – |
| COc1cccc(-c2nc3c(N4CCOCC4)nc(-n4c(C(C)C)nc5ccccc54)nc3n2C)c1 | 6.14 | – |
| Cn1c(CN2CC(C3CCOCC3)C2)nc2c(N3CCOCC3)nc(-n3c(C4CC4)nc4ccccc43)nc21 | 6.33 | – |
| CN(C)C1CCN(Cc2cc3nc(-n4ccc5cnccc54)nc(N4CCOCC4)c3s2)CC1 | 6.68 | – |
| COC(C)(C)C1CCN(Cc2nc3c(N4CCOCC4)nc(-c4c(C)oc5ccccc45)nc3n2C)CC1 | 5.92 | – |
| CCc1nc2ccccc2n1-c1nc(N2CCOCC2)c2nc(CN3C[C@@H]4C[C@H]3CN4C(C)(C)CO)n(C)c2n1 | 6.66 | – |
| CN(C)C1CCN(Cc2cc3nc(-c4ccc(O)c5nccn45)nc(N4CCOCC4)c3s2)CC1 | 6.23 | – |
| CCc1nc2ccccc2n1-c1nc(N2CCOCC2)c2nc(CC(=O)N3CCC(C(C)(C)O)CC3)sc2n1 | 6.88 | – |
| CCc1nc2ccccc2n1-c1nc(N2CCOCC2)c2nc(CCN3CCOCC3(C)C)n(C)c2n1 | 6.31 | – |
| CC(C)(C(N)=O)N1CCN(Cc2nc3nc(-c4cccc5nccn45)nc(N4CCOCC4)c3s2)CC1 | 5.82 | – |
| CCc1nc2ccccc2n1-c1nc(N2CCOCC2)c2nc(CC3CN(C(C)(C)C(N)=O)C3)n(C)c2n1 | 6.98 | 8.97 |
| CC(C)(C(N)=O)N1CCN(Cc2nc3c(N4CCOCC4)nc(-c4cncc5[nH]ccc45)nc3s2)CC1 | 7.38 | – |
| Cc1c(CN2CCN(C(C)(C)C(N)=O)CC2)sc2c(N3CCOCC3)nc(-c3cncc4[nH]ccc34)nc12 | 7.28 | – |
| c1cc(-c2nc(N3CCOCC3)c3sc(CN4CCC(N5CCOCC5)CC4)cc3n2)c2ccncc2c1 | 5.27 | – |
| CC(C)c1nc2ccccc2n1-c1nc(N2CCOCC2)c2nc(CN3CCN(C(C)(C)CO)CC3)[nH]c2n1 | 6.58 | – |
| CCc1nc2ccccc2n1-c1nc(N2CCOCC2)c2nc(CC3CN(C4CCS(=O)(=O)CC4)C3)n(C)c2n1 | 7.08 | – |
| CCc1nc2ccccc2n1-c1nc(N2CCOCC2)c2nc(C(=O)C3CCN(C(C)(C)C(=O)OC)CC3)n(C)c2n1 | 7.08 | 9.21 |
| CCc1nc2ccccc2n1-c1nc(N2CCOCC2)c2nc(CN3CCN(C(C)(C)CO)CC3)[nH]c2n1 | 6.67 | – |
| CC(C)c1nc2ccccc2n1-c1nc(N2CCOCC2)c2nc(-c3cccnc3)n(C)c2n1 | 6.72 | – |
| Cn1c(CN2CCC(C(C)(C)O)CC2)nc2c(N3CCOCC3)nc(-c3n[nH]c4ccccc34)nc21 | 5.55 | – |
| Cc1nc2ccccc2n1-c1nc(N2CCOCC2)c2oc(CN3CCN(C(C)(C)C(N)=O)CC3)cc2n1 | 6.76 | – |
